Laboratory results reported in paper PMC8515607 (ACS Omega, 2021).
Read-outs that look alike come from different tables or passages of the source.

What was measured:
BALB/3T3 = test: In vitro antiproliferative activity, SRB assay, normal fibroblasts BALB/3T3; assay type: cell-based; settings: Mus musculus, BALB/3T3, normal murine embryonic fibroblasts, 72 h, mean ± SD
Excerpt: (§1) The A549 and MCF7 cell lines were purchased from the European Collection of Authenticated Cell Cultures (ECACC, Salisbury, U.K., 86012804 and 86012803). The LoVo cell line was purchased from the American Type Culture Collection (CCL-229, ATCC, Manassas, VA), and LoVo/DX by courtesy of Prof. E. Borowski (Technical University of Gdańsk, Gdańsk, Poland). The BALB/3T3 cell line was purchased from the American Type Culture Collection (CCL-163, ATCC, Manassas, VA). All of the cell lines are maintained in the Institute of Immunology and Experimental Therapy (IIET), Wroclaw, Poland.
(§2) A549 cells were cultured in a mixture of OptiMEM and Roswell Park Memorial Institute (RPMI) 1640 (1:1) medium (IIET, Wroclaw, Poland), supplemented with 10% fetal bovine serum HyClone (GE Healthcare) and 2 mM L-glutamine (Sigma-Aldrich, Germany). MCF7 cells were cultured in a mixture of Eagle’s medium (IIET, Wroclaw, Poland), supplemented with 10% fetal bovine serum, 2 mM L-glutamine, and insulin (Sigma-Aldrich, Germany). LoVo and LoVo/DX cells were cultured in F12K medium (Corning), supplemented with 10% fetal bovine serum HyClone (GE Healthcare) and 0.1 μg/mL doxorubicin (Accord) for LoVo/DX. BALB/3T3 fibroblasts were cultured in Dulbecco’s medium (Gibco), supplemented with 10% fetal bovine serum (GE Healthcare) and 2 mM L-glutamine (Sigma-Aldrich, Germany). All culture media contained antibiotics: 100 U/mL penicillin (Polfa-Tarchomin, Poland) and 0.1 mg/mL streptomycin (Sigma-Aldrich, Germany). All cell lines were cultured during entire experiment in humid atmosphere at 37 °C and 5% CO2.
(§3) All cell lines were exposed to each tested agent at different concentrations in the range 100–0.00001 μg/mL for 72 h. The cells were also exposed to the reference drug cisplatin (Teva Pharmaceuticals, Poland) and doxorubicin (Accord Healthcare Limited, U.K.). Additionally, all cell lines were exposed to dimethyl sulfoxide (DMSO) (solvent used for tested compounds) (POCh, Poland) at concentrations corresponding to those present in tested agents dilutions. After 72 h, sulforhodamine B (SRB) assay was performed.[57]
(§4) After 72 h of incubation with the tested compounds, the cells were fixed in situ by gently adding cold 50% trichloroacetic acid (TCA) (POCh, Poland) and were incubated at room temperature for 1 h. Then, the wells were washed four times with water and air-dried. Next, 0.1% solution of sulforhodamine B (Sigma-Aldrich, Germany) in 1% acetic acid (POCh, Poland) was added to each well and the plates were incubated at room temperature for 0.5 h. After incubation time, unbound dye was removed by washing plates four times with 1% acetic acid, whereas stain bound to cells was solubilized with 10 mM Tris base (Sigma-Aldrich, Germany). Absorbance of each solution was read at Synergy H4 Hybrid Multi-Mode Microplate Reader (BioTek Instruments) at the 540 nm wavelength.
(§5) IC50 values were calculated in Excel sheet using formulas adapted by Mateusz Psurski fromCheburator 0.4, Dmitry Nevozhay software (version 1.2.0 software by Dmitry Nevozhay, 2004–2014, http://www.cheburator.nevozhay.com, freely available) for each experiment.[58] Compounds at each concentration were tested in triplicate in a single experiment, and each experiment was repeated at least three times independently.

LoVo/DX = test: cells; assay type: cell-based, human; settings: for LoVo/DX RI: resistance index = IC50 LoVo/DX / IC50 LoVo; for LoVo/DX SI: selectivity index = IC50 BALB/3T3 / IC50 LoVo/DX
Excerpt: as §1, §2, §3, §4, §5

MCF-7 = test: cells; assay type: cell-based, human; settings: for IC50: Homo sapiens; for MCF-7 SI: selectivity index = IC50 BALB/3T3 / IC50 MCF-7
Excerpt: as §1, §2, §3, §4, §5

A549 = test: cells; assay type: cell-based, human; settings: for IC50: Homo sapiens; for A549 SI: selectivity index = IC50 BALB/3T3 / IC50 A549
Excerpt: as §1, §2, §3, §4, §5

LoVo = test: cells; assay type: cell-based, human; settings: for IC50: Homo sapiens, LoVo; for LoVo SI: selectivity index = IC50 BALB/3T3 / IC50 LoVo
Excerpt: as §1, §2, §3, §4, §5

[1] = Homo sapiens, LoVo/DX, 72 h, read-out: LoVo/DX IC50 (nM), 72 h exposure, SRB, mean ± SD
[2] = MCF7, 72 h, read-out: MCF-7 IC50 (nM)
[3] = A549, 72 h, read-out: A549 IC50 (nM), 72 h exposure, SRB, mean ± SD

Structure (SMILES)	IC50 (BALB/3T3) [µM]	IC50 (LoVo/DX; [1]) [nM]	LoVo/DX RI (LoVo/DX)	LoVo/DX SI (LoVo/DX)	IC50 (MCF-7; [2]) [nM]	MCF-7 SI (MCF-7)	IC50 (A549; [3]) [nM]	A549 SI (A549)	IC50 (LoVo; 72 h, read-out: LoVo IC50 (nM)) [nM]	LoVo SI (LoVo)	IC50 (LoVo/DX; read-out: LoVo/DX IC50, 72 h exposure, SRB, mean ± SD) [nM]	IC50 (LoVo/DX; Homo sapiens, LoVo/DX, 72 h exposure, SRB, mean ± SD, read-out: LoVo/DX IC50) [nM]	IC50 (MCF-7; MCF7, 72 h exposure, SRB, mean ± SD, read-out: MCF-7 IC50) [nM]	IC50 (A549; A549, 72 h exposure, SRB, mean ± SD, read-out: A549 IC50) [nM]	IC50 (LoVo; 72 h exposure, SRB, mean ± SD, read-out: LoVo IC50) [nM]
CNc1ccc2c(cc1=O)[C@@H](n1cc(CO)nn1)CCc1cc(OC)c(OC)c(OC)c1-2 [Compound 9]	0.014 ± 0.0021	1500 ± 210	140	<0.1	6.8 ± 1	2.1	12 ± 2.1	1.2	11 ± 5.6	1.3					
CNc1ccc2c(cc1=O)[C@@H](n1cc(-c3ccccc3)nn1)CCc1cc(OC)c(OC)c(OC)c1-2 [Compound 14]	0.02 ± 0.0076	< 30	2.7	0.7	10 ± 1.8	2.0	13 ± 2.6	1.5	10 ± 0.8	2.0	27 ± 7.6				
CNc1ccc2c(cc1=O)[C@@H](n1cc(-c3ccc(Cl)cc3)nn1)CCc1cc(OC)c(OC)c(OC)c1-2 [Compound 15]	0.092 ± 0.02	150 ± 35	3.2	0.6	35 ± 14	2.6	39 ± 2.7	2.4	47 ± 22	2.0					
CNc1ccc2c(cc1=O)[C@@H](n1cc(CCl)nn1)CCc1cc(OC)c(OC)c(OC)c1-2 [Compound 10]	0.013 ± 0.003	95 ± 24	7.9	0.1	8.6 ± 3.2	1.5	13 ± 3.3	1.0	12 ± 2.4	1.1					
CNc1ccc2c(cc1=O)[C@@H](NC(C)=O)CCc1cc(OC)c(OC)c(OC)c1-2 [Compound 2, 10-N-methylaminocolchicine]	0.006 ± 0.0023	230 ± 17	43	<0.1	3.5 ± 0.7	1.7	4.4 ± 0.6	1.4	5.4 ± 0.7	1.1					
CNc1ccc2c(cc1=O)[C@@H](n1cc(C(=O)O)nn1)CCc1cc(OC)c(OC)c(OC)c1-2 [Compound 20]	2.1 ± 0.75	3400 ± 890	2.8	0.6	1200 ± 390	1.8	1300 ± 330	1.6	1200 ± 350	1.8					
CNc1ccc2c(cc1=O)[C@@H](n1cc(COC(=O)CCC(F)(F)F)nn1)CCc1cc(OC)c(OC)c(OC)c1-2 [Compound 25]	0.0067 ± 0.0024	350 ± 56	160	<0.1	1.1 ± 0.4	6.1	1.3 ± 0.2	5.2	2.2 ± 1.2	3.0					
CNc1ccc2c(cc1=O)[C@@H](n1cc(CNC(=O)CCC(F)(F)F)nn1)CCc1cc(OC)c(OC)c(OC)c1-2 [Compound 33]	0.027 ± 0.0087	3000 ± 800	270	<0.1	9.7 ± 3.4	2.8	11 ± 0.1	2.5	11 ± 5.5	2.5					
CCCCCCCCCCCCCCCC(=O)NCc1cn([C@H]2CCc3cc(OC)c(OC)c(OC)c3-c3ccc(NC)c(=O)cc32)nn1 [Compound 30]	0.29 ± 0.049	7300 ± 1100	24	<0.1	9.3 ± 2.4	31.2	16 ± 7.3	18.1	300 ± 94	1.0					
CNc1ccc2c(cc1=O)[C@@H](n1cc(CNC(=O)OC(C)(C)C)nn1)CCc1cc(OC)c(OC)c(OC)c1-2 [Compound 41]	0.011 ± 0.0008	570 ± 120	110	<0.1	3.2 ± 0.6	3.4	5.4 ± 1.5	2.0	5.1 ± 0.3	2.2					
CNc1ccc2c(cc1=O)[C@@H](n1cc(CNC(=O)C(C)C)nn1)CCc1cc(OC)c(OC)c(OC)c1-2 [Compound 29]	0.048 ± 0.014	2700 ± 600	190	<0.1	12 ± 3.2	4.0	12 ± 2.4	4.0	14 ± 2.3	3.4					
COc1cccc2c1C(=O)c1c(O)c3c(c(O)c1C2=O)C[C@@](O)(C(=O)CO)C[C@@H]3O[C@H]1C[C@H](N)[C@H](O)[C@H](C)O1 [doxorubicin, reference compound]	0.012 ± 0.0023		110	<0.1		0.1		0.1		0.2		5800 ± 2200	82 ± 31	120 ± 100	52 ± 13
CNc1ccc2c(cc1=O)[C@@H](n1cc(C3(O)CCCCC3)nn1)CCc1cc(OC)c(OC)c(OC)c1-2 [Compound 13]	0.1 ± 0.033	1700 ± 160	26	0.1	88 ± 50	1.1	94 ± 30	1.1	65 ± 33	1.5					
CNc1ccc2c(cc1=O)[C@@H](N)CCc1cc(OC)c(OC)c(OC)c1-2 [Compound 3, N-deacetyl-10-methylamino-10-demethoxycolchicine]	0.016 ± 0.0021	55 ± 13	6.2	0.3	8.1 ± 1.3	2.0	12 ± 2.3	1.3	8.9 ± 1.4	1.8					
CNc1ccc2c(cc1=O)[C@@H](n1cc(COCc3ccccc3)nn1)CCc1cc(OC)c(OC)c(OC)c1-2 [Compound 17]	0.011 ± 0.0078	84 ± 42	15	0.1	6.1 ± 4.8	1.8	6.9 ± 5.3	1.6	5.7 ± 4.9	1.9					
CCOC(=O)NCc1cn([C@H]2CCc3cc(OC)c(OC)c(OC)c3-c3ccc(NC)c(=O)cc32)nn1 [Compound 38]	0.012 ± 0.0016	840 ± 95	110	<0.1	4.2 ± 0.7	2.9	4.8 ± 0.7	2.5	7.7 ± 2.9	1.6					
CNc1ccc2c(cc1=O)[C@@H](n1cc(-c3ccccn3)nn1)CCc1cc(OC)c(OC)c(OC)c1-2 [Compound 16]	0.041 ± 0.004	210 ± 65	7.8	0.2	28 ± 12	1.5	35 ± 10	1.2	27 ± 14	1.5					
